From patent US6875758B2, “Method of treating hyperlipidemic and hyperglycemic conditions in mammals using pregnadienols and pregnadienones” (Council of Scientific & Industrial Research, priority 1999, dated 2005)

What was measured:
[1] = Hydroxy (OH) radical formation in nonenzymatic system (Fe2+, ascorbate, H2O2, deoxyribose); type: biochemical
[2] = tested on: normal rats; assay: Hypolipidemic activity in normal rats; type: in vivo; conditions: 50 mg/kg
Method: In normal rats, 3β-hydroxypregna-5,16-dien-20one (2), at 50 mg/kg produced a significant lowering of serum cholesterol and triglycerides as describe in Table-3 below.

[3] = tested on: isoproterneol induced myocardial necrosis in rat; assay: Isoproterneol induced myocardial necrosis in rats; type: in vivo; conditions: isoproterneol 85 mg/kg + drug 25 mg/kg p.o.
Source text: The underlying cause of myocardial infarction is believed to be the progressive deposition of lipids and fibrotic material into the arterial wall. These pregnadienols and pregnadienous also provided cardiac protection as assessed in isoproterneol induced myocardial necrosis in rat model, which produces myocardial infarction due to an increased blood pressure and heart rate.

[4] = tested on: cholesterol fed hyperlipidemic rats; assay: Lipid peroxidation in cholesterol fed hyperlipidemic rats; type: in vivo
[5] = tested on: hyperlipidemic rabbits; assay: Hypolipidemic effect in hyperlipidemic rabbits (120 days experiment); type: in vivo; design: Serum Triglycerides: unit not given here; conditions: 100 mg/kg
[6] = tested on: Rhesus monkeys; assay: Hypolipidemic activity in Rhesus monkeys; type: in vivo; conditions: for S. Triglycerides % Fall: day 60 vs day 0; for HDL-Cholesterol % Change / LDL-Cholesterol % Fall / S. Cholesterol % Fall: day 90 vs day 0
Method: In Rhesus monkeys: 3β-Hydroxypregna-5,16-dien-20one (2) was administered orally daily for 90 days in doses of 62.5, 125 or 650 mg/kg to different group of animals. Significant decrease in serum cholesterol was observed (45-52%).

[7] = tested on: streptozotocin induced diabetic rats; assay: Hypoglycemic activity in streptozotocin induced hyperglycemic rats; type: in vivo; conditions: 100 mg/kg p.o.
Method: Hyperglycemia in rats was produced by streptozotocin treatment. The animals showing blood glucose levels between 250-350 mg/dl were selected. Blood samples were collected after treatment at intervals and blood glucose levels were estimated immediately.

[8] = tested on: glucose loaded rats; assay: Hypoglycemic activity in glucose loaded rats; type: in vivo, albino rats (Charles Foster strain); conditions: for Blood Glucose Level: 100 mg/kg p.o. + glucose 2.0 g/kg; for % inhibition compared to control (blood glucose): 100 mg/kg
Method: The experiments were carried out with albino rats (Charles Foster strain) of either sex weighing 150-160 g. They were fed on laboratory diet prepared by M/s Lipton India Ltd. and maintained under 12 hr. light/dark cycle at 25±2° C.
The animals were divided into eight groups, each of six rats; group I was given 1% gum acacia (0.1 ml/100 g body weight) intragastrically (p.o.) and the group II were given 3β-hydroxypregna-5,16-dien-20-one (2) in 1% gum acacia. Animals of group III were given the standard antidiabetic drug, tolbutamide in the similar fashion. 2.0 g/kg glucose was given p.o. to all the rats along with the vehicle/Compound/Standard antidiabetic drug. Blood samples were taken from retroorbital plexus at periodic intervals. Glucose levels in the blood samples were measured by glucose oxidase method [Bergmeyer and Benut, 1963 cited in “Methods of Enzymatic Analysis” ed. H. Bergmeyer, Verlag Chemie, GmBH, Weinheim, Beroster, pp123, Academic press, New York].

[9] = 62.5, 125 or 650 mg/kg orally daily for 90 days

CC(=O)C1=CC[C@H]2[C@@H]3CC=C4C[C@@H](O)CC[C@]4(C)[C@H]3CC[C@]12C [Compound 2, 3β-Hydroxypregna-5,16-dien-20-one]
generation of OH radical (in words) [1]: inhibits the generation of OH radical in concentration dependent manner
% inhibition of OH radical formation ([1]; 5 μmol/ml): (28) %
OH radical formation ([1]; 5 μmol/ml): 65.0 ± 5.4 nmol MDA/hr
% inhibition of OH radical formation ([1]; 10 μmol/ml): (42) %
OH radical formation ([1]; 10 μmol/ml): 52.8 ± 4.2 nmol MDA/hr
% inhibition of OH radical formation ([1]; 20 μmol/ml): (74) %
OH radical formation ([1]; 20 μmol/ml): 23.3 ± 1.8 nmol MDA/hr
% inhibition of OH radical formation ([1]; 30 μmol/ml): (87) %
OH radical formation ([1]; 30 μmol/ml): 11.7 ± 1.3 nmol MDA/hr
% inhibition of OH radical formation ([1]; 40 μmol/ml): (88) %
OH radical formation ([1]; 40 μmol/ml): 10.4 ± 2.0 nmol MDA/hr
% inhibition of OH radical formation ([1]; 50 μmol/ml): (90) %
OH radical formation ([1]; 50 μmol/ml): 9.9 ± 0.8 nmol MDA/hr
Serum Cholesterol ([2]; 0 Days): 71.5 ± 1.8 mg %
Serum Cholesterol ([2]; 30 Days): 43.2 ± 2.9 mg %
Serum Cholesterol % Fall ([2]; 30 Days): 40%
Serum Triglycerides ([2]; 30 Days): 42.0 ± 2.8 mg %
Serum Triglycerides % Fall compared to control ([2]; 30 Days): 35%
Heart Ca. - ATPase % Protection [3]: 30.2%
Heart Glycogen % Protection [3]: 25.1%
Heart Lipid peroxide % Protection [3]: 72.6%
Heart Phospholipase % Protection [3]: 74.2%
Serum Alkaline Phosphatase % Protection [3]: 24.0%
Serum CPK % Protection [3]: 35.7%
Serum GOT % Protection [3]: 27.0%
Serum GPT % Protection [3]: 22.7%
HDL lipid peroxides ([4]; cholesterol + drug 25 mg/kg): 125 ± 10 n mol MDA/dl
HDL lipid peroxides % reversal as compared with cholesterol fed rats ([4]; cholesterol + drug 25 mg/kg): (−9) %
LDL lipid peroxides ([4]; cholesterol + drug 25 mg/kg): 421 ± 20 n mol MDA/dl
LDL lipid peroxides % reversal as compared with cholesterol fed rats ([4]; cholesterol + drug 25 mg/kg): (−30) %
Liver lipid peroxides ([4]; cholesterol + drug 25 mg/kg): 212 ± 16 n mol MDA/g
Liver lipid peroxides % reversal as compared with cholesterol fed rats ([4]; cholesterol + drug 25 mg/kg): (−23) %
Serum lipid peroxides ([4]; cholesterol + drug 25 mg/kg): 931.5 ± 51 n mol MDA/dl
Serum lipid peroxides % reversal as compared with cholesterol fed rats ([4]; cholesterol + drug 25 mg/kg): (−24) %
VLDL lipid peroxides ([4]; cholesterol + drug 25 mg/kg): 310 ± 15 n mol MDA/dl
VLDL lipid peroxides % reversal as compared with cholesterol fed rats ([4]; cholesterol + drug 25 mg/kg): (−18) %
lipid peroxide levels in serum VLDL, LDL and liver (in words) ([4]; cholesterol fed animals, simultaneous treatment): significant reversal
Serum Cholesterol % Decrease (Compared with HFD) [5]: 74%
Serum Triglycerides % Decrease (Compared with HFD) [5]: 61%
Serum Cholesterol ([5]; HFD): 350.0 ± 28.1 mg/dL
Serum Triglycerides ([5]; HFD): 74.2 ± 10.3
S. Cholesterol ([6]; 62.5 mg/kg orally daily, day 0): 156.8 ± 23.0 mg/dL
S. Triglycerides ([6]; 62.5 mg/kg orally daily, day 0): 77.5 ± 7.0 mg/dL
S. Triglycerides ([6]; 62.5 mg/kg orally daily, day 60): 66.3 ± 6.9 mg/dL
S. Cholesterol ([6]; 62.5 mg/kg orally daily, day 90): 83.3 ± 8.5 mg/dL
HDL-Cholesterol ([6]; 62.5 mg/kg, day 0): 50.0 ± 4.5 mg/dL
LDL-Cholesterol ([6]; 62.5 mg/kg, day 0): 91.8 ± 27.0 mg/dL
S. Triglycerides % Fall ([6]; 62.5 mg/kg): 14%
HDL-Cholesterol ([6]; 62.5 mg/kg, day 90): 45.0 ± 2.5 mg/dL
LDL-Cholesterol ([6]; 62.5 mg/kg, day 90): 24.3 ± 8.0 mg/dL
HDL-Cholesterol % Change ([6]; 62.5 mg/kg): −8%
LDL-Cholesterol % Fall ([6]; 62.5 mg/kg): 75%
S. Cholesterol % Fall ([6]; 62.5 mg/kg): 47%
S. Cholesterol ([6]; 125 mg/kg orally daily, day 0): 133.3 ± 8.5 mg/dL
S. Triglycerides ([6]; 125 mg/kg orally daily, day 0): 69.8 ± 9.9 mg/dL
S. Triglycerides ([6]; 125 mg/kg orally daily, day 60): 60.0 ± 2.9 mg/dL
S. Cholesterol ([6]; 125 mg/kg orally daily, day 90): 65.8 ± 2.2 mg/dL
HDL-Cholesterol ([6]; 125 mg/kg, day 0): 46.3 ± 2.0 mg/dL
LDL-Cholesterol ([6]; 125 mg/kg, day 0): 63.5 ± 7.4 mg/dL
S. Triglycerides % Fall ([6]; 125 mg/kg): 13%
HDL-Cholesterol ([6]; 125 mg/kg, day 90): 50.8 ± 0.5 mg/dL
LDL-Cholesterol ([6]; 125 mg/kg, day 90): 4.6 ± 0.9 mg/dL
HDL-Cholesterol % Change ([6]; 125 mg/kg): +10%
LDL-Cholesterol % Fall ([6]; 125 mg/kg): 90%
S. Cholesterol % Fall ([6]; 125 mg/kg): 50%
S. Cholesterol ([6]; 650 mg/kg orally daily, day 0): 132.8 ± 6.4 mg/dL
S. Triglycerides ([6]; 650 mg/kg orally daily, day 0): 90.5 ± 3.9 mg/dL
S. Triglycerides ([6]; 650 mg/kg orally daily, day 60): 58.5 ± 3.8 mg/dL
S. Cholesterol ([6]; 650 mg/kg orally daily, day 90): 63.3 ± 2.3 mg/dL
HDL-Cholesterol ([6]; 650 mg/kg, day 0): 39.3 ± 1.3 mg/dL
LDL-Cholesterol ([6]; 650 mg/kg, day 0): 72.7 ± 8.4 mg/dL
S. Triglycerides % Fall ([6]; 650 mg/kg): 36%
HDL-Cholesterol ([6]; 650 mg/kg, day 90): 41.8 ± 0.9 mg/dL
LDL-Cholesterol ([6]; 650 mg/kg, day 90): 13.1 ± 0.7 mg/dL
HDL-Cholesterol % Change ([6]; 650 mg/kg): +6%
LDL-Cholesterol % Fall ([6]; 650 mg/kg): 82%
S. Cholesterol % Fall ([6]; 650 mg/kg): 53%
changes in HDL-cholesterol [6, 9]: not significant
decrease in low density lipoprotein [6, 9]: 75-90%
decrease in serum cholesterol [6, 9]: 45-52%
Blood Glucose Level ([7]; 0 hr): 274 ± 9 mg/dL
% lowering from zero hour value (blood glucose) ([7]; 1 hr): (11.3) %
% lowering from zero hour value (blood glucose) ([7]; 2 hr): (15.6) %
% lowering from zero hour value (blood glucose) ([7]; 3 hr): (25.9) %
% lowering from zero hour value (blood glucose) ([7]; 4 hr): (33.2) %
% lowering from zero hour value (blood glucose) ([7]; 5 hr): (42.7) %
% lowering from zero hour value (blood glucose) ([7]; 6 hr): (51.4) %
% lowering from zero hour value (blood glucose) ([7]; 7 hr): (62.7) %
% lowering from zero hour value (blood glucose) ([7]; 8 hr): (66.7) %
% lowering from zero hour value (blood glucose) ([7]; 24 hr): (52.2) %
Maximum Blood Glucose Change ([8]; 100 mg/kg p.o. + glucose): −18.7%
Blood Glucose Level ([8]; 0 min): 42.43 ± 1.64 mg/dL
Blood Glucose Level ([8]; 30 min): 76.15 ± 6.07 mg/dL
Blood Glucose Level ([8]; 60 min): 56.06 ± 4.65 mg/dL
Blood Glucose Level ([8]; 90 min): 55.06 ± 2.61 mg/dL
Blood Glucose Level ([8]; 120 min): 49.59 ± 1.66 mg/dL
% inhibition compared to control (blood glucose) ([8]; 30 min): (48) %
% inhibition compared to control (blood glucose) ([8]; 60 min): (55) %
% inhibition compared to control (blood glucose) ([8]; 90 min): (54) %
% inhibition compared to control (blood glucose) ([8]; 120 min): (34) %
